# In patent US20050048132A1, “Use of hydrochloric acid in the preparation of a medicament for the treatment of tumour” (priority 2001, published 2005):
# Like-named read-outs stand apart in the source and are kept apart here.
# What was measured:
# pig liver in vitro = tested on: pig liver in vitro
# Procedure: Thirty pig livers purchased from the market were divided into 10 groups, 3 in each group. […] One milliliter (1 ml) of hydrochloric acid solutions, (the concentrations being 1.8 wt %, 3.6 wt %, 7.2 wt %, 10.8 wt %, 14.4 wt %, 18 wt %, 25.2 wt %), and 1 ml , 0.5 ml, 0.1 ml respectively, of analytical pure hydrochloric acid were injected slowly to the […] of different groups, at a speed of 0.3 ml/min. The gross specimens were observed and the average value of the diameters of coagulated areas was determined.
# lungs of hogs = tested on: lungs of hogs
# Text: The lung of the animal was dissected 1 week after the injection.
# [1] = tested on: primary bronchopulmonary carcinoma
# Procedure: Two cases of primary bronchopulmonary carcinoma which were pathologically confirmed were chosen. One was a case of adenocarcinoma, the other was a case of adenous prickle cell carcinoma. The sizes of the two tumors were 2.0×2.0 cm and 2.5×2.0 cm respectively. After CT location, guided by CT, percutaneous puncture was carried out on each case; the needle reached the center of the tumor and connected with an automatic micro-injecting pump, 1.5, 2.0 ml of 18 wt % HCl were injected into the tumors at a speed of 0.2 ml/min.
# cancer cells = assay: Cultivation of cancer cells in vitro together with gastric juice; type: cell-based
# pig liver in vivo = details: for diameters of coagulated areas / pathological changes: 1 ml of 3.6% hydrochloric acid
# Text: Ten hogs (females and males), with body weights of 70 kg on average, were fed in an enclosed area. The hair on the location of the liver of each hog was shaved and the skin sterilized guided by B-type ultrasonography. The puncture needle was punctured through the skin to the liver and then the needle was connected with an automatic micro-injecting pump. […] The animal was dissected at 1 week, 4 weeks, 12 weeks and 24 weeks after injection, and the shapes of the coagulating necrotic areas were observed and the diameters of the areas were measured. […] Then the liver tissue including normal tissue and coagulating necrotic tissue was fixed with formalin. Paraffin sections were prepared and the histopathological changes were observed under a microscope. […] Under a microscope, the structure of coagulating necrotic liver tissue was divided into two layers: the necrotic area in the center, and the surrounding reacting area.
# pig livers in vitro = details: 0.5 ml each; after 24 hours
# Text: Twelve pig livers purchased from the market were divided into 4 groups, 3 in each group. A puncture needle was punctured to the center of the liver tissue and then connected with an automatic microinjecting pump.
# liver of hogs in vivo = details: 1.0 ml each into hog liver; 1 week after injection
# Text: Experiment in vivo: Nine hogs (females and males) with average body weight of 70 kg were fed in an enclosed area. The hogs were divided into 3 groups, 3 hogs in each group. The hair on the location of liver was shaved and the skin was sterilized. […] The animals were dissected 1 week after the injection.
# S-180 sarcomas = details: forty-eight hours after injection; for Diameters of coagulating necrotic area / Gross shapes: 0.05 ml each into tumor 1 cm in size
# Text: S-180 sarcomas were implanted into the hypodermal tissues of mice of Kun Ming species. When the tumor grew into 1 cm in size, a puncture needle was punctured into the center of the tumor and then connected with an automatic micro-injecting pump.
# skin of guinea pig = details: 0.2 ml of 3.6 wt % HCl hypodermal
# Procedure: Six guinea pigs, female and males, 500 g each in body weight, were fed in the routine way. The guinea pig was anesthetized by ether. 0.2 ml of 3.6 wt % HCl was injected into the hypodermal tissue of the guinea pig.
# [2] = tested on: abdominal hypodermal tissue of mice
# Procedure: Thirty mice were used in the experiment. 0.05 ml of 3.8 wt % HCl was injected into the abdominal hypodermal tissue of each of them. […] Injection of 0.05 ml of normal saline was given to each of the remaining 6 mice which served as the control group. Normal saline was injected into the corresponding site where HCl had been injected to the other experimental mice.
# [3] = tested on: recurrent carcinoma of breast; details: 1.0 ml of 18 wt % HCl, treated three times; tumor 2.0 cm×1.5 cm
# [4] = tested on: metastatic tumor of the adrenal gland from pulmonary carcinoma; details: 1.0 ml of 18 wt % HCl, treated three times
# [5] = tested on: metastatic tumor of the left lobe of the brain from pulmonary adenocarcinoma; details: 1.0 ml of 18 wt % HCl, two times; tumor 1.9 cm×1.9 cm before; 3 months after treatment
# kidney cancer = details: 1.5 ml of 18 wt % HCl, 3 months after treatment
# Procedure: Treatment of kidney cancer: guided by CT, the puncture needle hit the center of the tumor, 1.5 ml of 18 wt % HCl was injected into the tumor slowly.
# [6] = tested on: cancerous pain due to advanced cancers; details: 3.6 wt % HCl to block and damage the nerves
# [7] = 1.5 ml-2.0 ml of 18 wt % HCl with i.v. 5 wt % sodium bicarbonate, 4 patients
# [8] = 1.5 ml-2.0 ml of 18 wt % HCl, one week after injection
# Procedure for W256 sarcoma: Rats, female and males, 500 g each in body weight, were fed routinely. Hypodermic implantation of W256 sarcoma was carried out. Sarcoma, 5 cm in diameter, was chosen. One (1.0) ml of 18 wt % HCl was slowly injected into the tumor. Twenty-four hours after injection, the rats were dissected, and the tumors were observed.
smiles,measurement,setting,value
Cl [hydrochloric acid],Diameter of coagulated areas,"pig liver in vitro; 0.1 ml of analytic pure hydrochloric acid (36%), 24 hours after injection",1.5 cm
same,Diameter of coagulated areas,"pig liver in vitro; 0.1 ml of analytic pure hydrochloric acid (36%), immediately after injection",0.2 cm
same,Diameter of coagulated areas,"pig liver in vitro; 0.5 ml of analytic pure hydrochloric acid (36%), 24 hours after injection",3.9 cm
same,Diameter of coagulated areas,"pig liver in vitro; 0.5 ml of analytic pure hydrochloric acid (36%), immediately after injection",1.5 cm
same,Diameter of coagulated area,"pig liver in vitro; 1 ml of 1.8 % hydrochloric acid, 24 hours after injection",0.75 cm
same,Diameter of coagulated area,"pig liver in vitro; 1 ml of 1.8 % hydrochloric acid, immediately after injection",0.7 cm
same,Diameter of coagulated area,"pig liver in vitro; 1 ml of 3.6 % hydrochloric acid, 24 hours after injection",1.4 cm
same,Diameter of coagulated area,"pig liver in vitro; 1 ml of 3.6 % hydrochloric acid, immediately after injection",1.0 cm
same,Diameter of coagulated area,"pig liver in vitro; 1 ml of 7.2 % hydrochloric acid, 24 hours after injection",1.9 cm
same,Diameter of coagulated area,"pig liver in vitro; 1 ml of 7.2 % hydrochloric acid, immediately after injection",1.3 cm
same,Diameter of coagulated area,"pig liver in vitro; 1 ml of 10.8 % hydrochloric acid, 24 hours after injection",2.2 cm
same,Diameter of coagulated area,"pig liver in vitro; 1 ml of 10.8 % hydrochloric acid, immediately after injection",1.5 cm
same,Diameter of coagulated area,"pig liver in vitro; 1 ml of 14.4 % hydrochloric acid, 24 hours after injection",3.1 cm
same,Diameter of coagulated area,"pig liver in vitro; 1 ml of 14.4 % hydrochloric acid, immediately after injection",1.8 cm
same,Diameter of coagulated area,"pig liver in vitro; 1 ml of 18 % hydrochloric acid, 24 hours after injection",4.8 cm
same,Diameter of coagulated area,"pig liver in vitro; 1 ml of 18 % hydrochloric acid, immediately after injection",2.2 cm
same,Diameter of coagulated area,"pig liver in vitro; 1 ml of 25.2 % hydrochloric acid, 24 hours after injection",5.2 cm
same,Diameter of coagulated area,"pig liver in vitro; 1 ml of 25.2 % hydrochloric acid, immediately after injection",2.4 cm
same,Diameter of coagulated areas,"pig liver in vitro; 1.0 ml of analytic pure hydrochloric acid (36%), 24 hours after injection",5.5 cm
same,Diameter of coagulated areas,"pig liver in vitro; 1.0 ml of analytic pure hydrochloric acid (36%), immediately after injection",2.8 cm
same,reaction of animal at injection,lungs of hogs; 1.0 ml of 3.6 wt % HCl into the lung at 0.3 ml/min,coughed slightly
same,diameter of coagulated (consolidated) lung tissue,"lungs of hogs; 1.0 ml of 3.6 wt % HCl, 1 week after injection",1.8 cm
same,coagulating necrotic area on dissection of the lung,"lungs of hogs; 1.0 ml of 3.6 wt % HCl, four weeks after injection",the coagulating necrotic area became smaller
same,fate of necrotic substances,"lungs of hogs; 1.0 ml of 3.6 wt % HCl, three months after injection",the necrotic substances were absorbed
same,cytological examination of needle puncture biopsy,"[1]; 1.5, 2.0 ml of 18 wt % HCl",found necrotic tissue
same,reactions during the treatment,"[1]; 1.5, 2.0 ml of 18 wt % HCl with i.v. 5% sodium bicarbonate, two patients",coughed slightly during the treatment; no other painful or toxic manifestations occurred
same,"pH value of blood, blood routine tests, liver and kidney function tests","[1]; 1.5, 2.0 ml of 18 wt % HCl, two patients",all normal
same,effect on cancer cells in culture,cancer cells,the destruction was due to gastric acid
same,diameters of coagulated areas,pig liver in vivo; 1 week after injection,1.8 cm
same,pathological changes,pig liver in vivo; 1 week after injection,"necrotic area occupies most part of the area,"
same,diameters of coagulated areas,pig liver in vivo; 4 weeks after injection,1.3 cm
same,pathological changes,pig liver in vivo; 4 weeks after injection,"The necrotic area became smaller, infiltration"
same,diameters of coagulated areas,pig liver in vivo; 12 weeks after injection,0.5 cm
same,pathological changes,pig liver in vivo; 12 weeks after injection,"The necrotic area became further smaller, the"
same,animal death during the experiment,pig liver in vivo; 1 ml of 3.6 wt % hydrochloric acid into hog liver,no animal died due to the treatment
same,diameter of round high level echo region at coagulated site by B-type ultrasonography,"pig liver in vivo; 1 ml of 3.6 wt % hydrochloric acid, immediately after injection",2.0 cm
same,fate of necrotic substances,"pig liver in vivo; 1 ml of 3.6 wt % hydrochloric acid, sixteen weeks after injection",the necrotic substances were absorbed
same,diameter of coagulating necrotic area,pig livers in vitro,2.2 cm
same,gross shape,pig livers in vitro,"spherical, grayish white in color, the"
same,diameter of coagulating necrotic area,liver of hogs in vivo,2.1 cm
same,gross examination of coagulating necrotic area,liver of hogs in vivo,spheroid
same,diameter of brown necrotic tumor tissue,"W256 sarcoma; 1.0 ml of 18 wt % HCl into sarcoma 5 cm in diameter, 24 hours after injection",3.5 cm
same,death or intoxication during the treatment,W256 sarcoma; 1.0 ml of 18 wt % HCl intratumoral,no death or intoxication occurred among the rats
same,histopathologic changes by microscopy,"W256 sarcoma; 1.0 ml of 18 wt % HCl, 24 hours after injection",complete necrosis occurred in the necrotic area
same,Diameters of coagulating necrotic area,S-180 sarcomas,0.76 cm
same,Gross shapes,S-180 sarcomas,"spherical, caseous, grayish white in color,"
same,necrosis of the tumor,S-180 sarcomas; 0.05 ml,complete necrosis of the tumor
same,skin change after injection,skin of guinea pig,the skin became rough and a little exudation occurred
same,skin change three weeks later,"skin of guinea pig; iodine tincture smeared, three weeks later",the surface became dry and scar was formed
same,diameter of surface of ulcer,skin of guinea pig; one week after injection,1.0 cm
same,damage in the abdominal organs by dissection,[2]; 0.05 ml of 3.8 wt % HCl abdominal hypodermal,No damage was found in the abdominal organs
same,diameters of damages (ulcer-like damages of the skin),[2]; 0.05 ml of 3.8 wt % HCl then 0.05 ml normal saline (control group),1.2 cm
same,diameters of scar areas,"[2]; 0.05 ml of 3.8 wt % HCl then normal saline (control group), one week later",0.9 cm
same,coagulating necrotic ranges of the liver,"hogs; 18 wt % HCl, 0.5, 1, 3 ml at 0.1, 0.5, 1 ml/min into hog liver, one week after injection",1.2-5.2 cm
same,death or intoxication,"hogs; 18 wt % HCl, 0.5 ml-3 ml into hog liver",No death or intoxication of hog occurred
same,"pH value of blood, blood routine tests, liver and kidney function tests",primary liver cancer; [7],all normal
same,painful or toxic manifestation,primary liver cancer; [7],None of the 4 patients had painful or toxic manifestation
same,color ultrasonography of the tumor,primary liver cancer; [8],high level echo without blood flow area
same,liver cancer sensitive index α-fetoglobulin value,primary liver cancer; [8],markedly lowered
same,tumor response,[3],basically turned into necrotic tissue
same,tumor response,[4],necrosis of the tumor occurred
same,size of metastatic tumor by intensified CT,[5],0.8 cm
same,appearance of tumor on re-examination,kidney cancer,high level echo locus without blood flow
same,diameter of tumor on re-examination,kidney cancer; tumor 3.0 cm×2.5 cm before,0.5 cm
same,relief of cancerous pain,[6],pain could be relieved
"CC(=O)O [50% acetic acid, acetic acid]",diameter of coagulating necrotic area,pig livers in vitro,2.0 cm
same,gross shape,pig livers in vitro,"lump-like, white, the border"
same,diameter of coagulating necrotic area,liver of hogs in vivo,about 1.8 cm
same,gross examination of coagulating necrotic area,liver of hogs in vivo,did not have a definite border
same,Diameters of coagulating necrotic area,S-180 sarcomas,0.62 cm
same,Gross shapes,S-180 sarcomas,"brown, the border was unclear,"
"CCO [100% absolute alcohol, absolute alcohol]",diameter of coagulating necrotic area,pig livers in vitro,0.5 cm
same,gross shape,pig livers in vitro,"spherical, white, the border"
same,diameter of coagulating necrotic area,liver of hogs in vivo,0.5 cm
same,gross examination of coagulating necrotic area,liver of hogs in vivo,"spherical, white in color"
same,Diameters of coagulating necrotic area,S-180 sarcomas,0.41 cm
same,Gross shapes,S-180 sarcomas,"spherical, white in color, the border"
